“Also recorded” adds a separate entry of the source.
Key:
[1] = tested on: lysophospholipids from LIPC-digested human LDL; assay: Extraction of lysophospholipids from LIPC-digested LDL by cyclodextrins, read out as complement C3 fixation; type: biochemical; conditions: for complement activation after cyclodextrin extraction of LIPC-digested LDL: 20 mM cyclodextrin
Method: Immobilized LDL was digested with LIPC, then 20 mM of different cyclodextrins (A), or 0-20 mM HPαCD (B), or 20 mM HPαCD (C), or 2 mM of HPαCD in combination with 0.5 mg/ml of native LDL (D) are used for 20 hours extraction (A, B, D), or 0-20 hours extraction (C). Complement activation with diluted native human serum was then performed. MβCD—methyl-β-cyclodextrin; HPβCD—hydroxypropyl-β-cyclodextrin.
(§1) 96-well NUNC MaxiSorp plates were coated with 40 μl of human LDL, VLDL, or NaOH-hydrolyzed LDL, all at 200 μg/ml in PBS, at 4° C. overnight then 37° C. for 1 hour, and remaining binding sites were blocked with 3% BSA in PBS at 37° C. for 1 hour. The wells were washed and then incubated with 40 μl of LIPC or CEase in PBS containing 2% BSA at 37° C. for 1 or 2 hours as indicated in Results section, and the degradation reaction was stopped by washing the plate with PBS. For complement system activation, the resulted plate was incubated with 20 μl of 1:1 diluted human sera at 21° C. for 30 minutes. The diluent for serum dilution was PBS containing calcium and magnesium, and human sera that were utilized in our study were native serum, C1q-depleted serum, factor B-depleted serum, native serum with addition of 10 mM of MgCl2 and 20 mM EGTA (Mg-EGTA), and native serum with addition of 10 mM EDTA.
(§2) After thorough washing of the plate, C3 fixation and final membrane attack complex formation on the plate were determined with anti-human C3d antibody and anti-human C5b-9 antibody, in combination with HRP-conjugated secondary antibody, respectively. The monoclonal anti-human C3d antibody is reactive to all C3d-containing fragments of C3, but not with C3 itself, so it detects C3 fixation on the plate and not C3 absorption. The final peroxidase activity was monitored at 450 nm with 3,3′,5,5′-tetramethyl-benzidine and hydrogen peroxide as substrates after 10 or 15 minutes reaction at room temperature.
We tested several cyclodextrins for the ability to extract lysophospholipids from LIPC-digested human LDL. Since lysophospholipid level in lipoprotein is directly related to complement C3 fixation, we use C3 fixation as an indicative parameter for levels of lysophospholipids in lipoprotein. […] We also tested HPαCD upon shuttling of lysophospholipids between LIPC-digested LDL and native LDL, a biological feature of lipid transport (FIG. 4D).

[2] = tested on: ARPE-19 cells; type: cell-based
Method: (A, B) 40-50% confluent ARPE-19 cells in 96-well plate were cultured with serum-free medium for 24 hours, then incubated with 0.1 ml of serum-free medium containing 0-100 μM 1-Palmitoyl-sn-glycero-3-phosphocholine (LPC) for 22 hours. Cell morphology of control cells and 100 μM LPC treated cells was observed under a microscope, as shown in (B). The cells were then incubated with 0.15 ml of serum-free medium containing 0.5 mg/ml MTT at 37° C. for 2 hours. Formation of formazan is detected at 540 nm with 0.1 ml of DMSO as solvent (A). (C) As performed in (A), but with 100 μM LPC pre-incubated for 1 hour with 0-20 mM HPαCD, significant protection of HPαCD on ARPE-19 cells was observed when used at 0.5 mM or greater in medium (marked with *).
Human retinal pigment epithelial cell line, ARPE-19, was purchased from ATCC (Manassas, Va.). The cells were cultured in Dulbecco's modified Eagle's medium supplemented with 10% of heat-inactivated fetal bovine serum (FBS), 100 IU/ml of penicillin, and […] of streptomycin (all cell culture products from Invitrogen-Gibco, Rockville, Md.). Cells were maintained at 37° C. in a 5% CO2 incubator with medium change every 3-4 days. […]
Cell viability was determined with the colorimetric MTT metabolic activity assay. […] After removal of cell culture medium, formation of formazan from MTT reduction was detected at 540 nm with 0.1 ml of DMSO as solvent.

[3] = tested on: rabbit cornea after alkali burn; assay: Rabbit corneal neovascularization by alkali burn; type: in vivo
Method: Alkali burn on central cornea was performed with 6 mm filter paper disc wetted with 8 μl of 1M NaOH. Cornea were then extensively washed with PBS, followed by treatment with control formula (left eye) and cyclodextrin formula (right eye) as described in Materials and Methods. The bottom two pictures are fluorescein angiograms showing the leaking new vessels in the cornea. White arrows in pictures show corneal neovascularization.
3 New Zealand white rabbits, aged 4-5 months and weighing 1.8-2.6 kg, were obtained from Charles River Laboratories (Wilmington, Mass.) and acclimatized for several weeks before the experiments started. All of the rabbits were anesthetized using ketamine (42 mg/kg) and xylazine (7 mg/kg) intramuscularly. 0.5% proparacaine hydrochloride (Akorn, Inc. Lake Forest, Ill.) was applied topically. Alkali burn on central cornea of both eyes was performed with 6 mm round disc of Whatman No. 1 filter paper wetted with […] of 1M NaOH for exactly 1 minute, filter paper was then removed and the cornea was extensively irrigated with 200 ml of PBS for 10 minutes. Left eye and right eye were then treated with control formula (6 mg/ml of POPC liposome in PBS) and cyclodextrin formula (50 mM HPαCD and 16.7 mM HPβCD in control formula), respectively. […]

[4] = tested on: classical pathway of complement system; assay: Complement activation (C3 fixation) by LIPC- or CEase-digested immobilized LDL with human serum; type: biochemical
Method: 96-well MaxiSorp plates were coated with fresh human LDL (A, D, E), VLDL (B), or NaOH-hydrolyzed LDL (C). After blocking with BSA, the plates, except (C), were digested with LIPC. To test complement activation, the plates were incubated with diluted native human serum (N), C1q-depleted human serum (Cd), factor B-depleted human serum (Bd), or human serum containing Mg-EGTA (ME). C3 fixation on the plate was detected with a monoclonal anti-C3d antibody followed by HRP-conjugated secondary antibody. Specific conditions for LIPC digestion and HRP-catalyzed color development of each experiment were outlined as following: LIPC was used at 10 μg/ml for (A, B, E), 0-50 μg/ml for (D), and no LIPC for (C). LIPC degradation was 1 hour for (D), 2 hours for (A, B), and 0-2 hours for (E). Color development was 15 minutes for (A, B, C, E) and 10 minutes for (D). For NaOH hydrolysis of LDL, 1.35 mg/ml of LDL was incubated in 0.15M NaOH solution at 25° C. for up to 60 minutes. Aliquots were taken out and neutralized with 0.15M HCl at 1, 10, 20, 60 minutes.
LIPC and CEase, both having 8 μUnits of phospholipase A1 activity but having 3 μUnits and 8125 μUnits of triglyceride hydrolase activity respectively, were used for 2 hours digestion of immobilized LDL. Complement activation with diluted native human serum is then determined as in FIG. 1. The HRP-catalyzed color development was 15 minutes.
Human LDL coating and 1 hour (C) or 2 hours (A, B) LIPC digestion was performed as described in FIG. 1. (A) For complement activation, 0-50 μM of phosphocholine was added into diluted native human serum. […]
as §2, with “The monoclonal anti-human C3d antibody is reactive to all C3d-containing fragments of C3, but not with C3 itself, so it detects C3 fixation on the plate and not C3 absorption.” left out

[5] = tested on: C5b-9; assay: Terminal complement complex (C5b-9) formation by LIPC-digested LDL; type: biochemical; conditions: human serum with additional CRP
Method: Immobilized LDL was digested by LIPC and then incubated with human serum with or without additional CRP. C3 fixation (A) and C5b-9 formation (B) was determined by specific primary and HRP-conjugated secondary antibodies.
as §1, with “The diluent for serum dilution was PBS containing calcium and magnesium, and human sera that were utilized in our study were native serum, C1q-depleted serum, factor B-depleted serum, native serum with addition of 10 mM of MgCl2 and 20 mM EGTA (Mg-EGTA), and native serum with addition of 10 mM EDTA.” left out
as §2, with “The monoclonal anti-human C3d antibody is reactive to all C3d-containing fragments of C3, but not with C3 itself, so it detects C3 fixation on the plate and not C3 absorption.” left out

Question: With `OC[C@H]1O[C@@H]2O[C@H]3[C@H](O)[C@@H](O)[C@@H](O[C@H]4[C@H](O)[C@@H](O)[C@@H](O[C@H]5[C@H](O)[C@@H](O)[C@@H](O[C@H]6[C@H](O)[C@@H](O)[C@@H](O[C@H]7[C@H](O)[C@@H](O)[C@@H](O[C@H]1[C@H](O)[C@H]2O)O[C@@H]7CO)O[C@@H]6CO)O[C@@H]5CO)O[C@@H]4CO)O[C@@H]3CO` [α-cyclodextrin, reference compound] as the molecule, how does the “complement activation after cyclodextrin extraction of LIPC-digested LDL” value (“complement activation … of LIPC-digested LDL” below) ([1]; 20 hours extraction) read?
Answer: The value was “much weaker effects”.

Question: Which “HPαCD concentration giving significant protection of ARPE-19 cells” value ([2]; 100 μM LPC pre-incubated 1 hour with 0-20 mM HPαCD) does the source give for 2-hydroxypropyl-α-cyclodextrin [HPαCD] here?
Answer: Its value is ≥ 0.5 mM.

Question: And the “neovascularization area and vessel length” value ([3]; FIG. 7 representative result)?
Answer: The value was “reduced dramatically”.

Question: And the “inhibition of corneal neovascularization” value ([3]; topical after alkali burn, right eye vs control formula left eye, three rabbits)?
Answer: The value was “dramatic effect of HPαCD extraction on inhibition of corneal neovascularization”.

Question: What about the “extraction of complement-activating lysophospholipids, dose and time dependence” value ([1]; 0-20 mM HPαCD for 20 hours, 20 mM HPαCD for 0-20 hours) of the same molecule?
Answer: The value was “dose- and time-dependent”.

Question: What about the “extraction of lysophospholipids, HPαCD alone at low level” value ([1]; 2 mM HPαCD alone, 20 hours extraction) of the same molecule?
Answer: Its value is “cannot extract much lysophospholipids”.

Question: And the “extraction of lysophospholipids, HPαCD in combination with native LDL” value ([1]; 2 mM HPαCD with 0.5 mg/ml native LDL, 20 hours extraction)?
Answer: The value was “extract the most lysophospholipids”.

Question: And the “complement activation … of LIPC-digested LDL” value ([1]; 20 hours extraction)?
Answer: Its value is “significantly less complement activation; also recorded: Significant extraction of lysophospholipids”.

Question: Which “complement activation … of LIPC-digested LDL” value ([1]; 20 hours extraction) does the source give for “methyl-β-cyclodextrin [reference compound]” here?
Answer: The value was “much weaker effects”.

Question: How did the “complement activation by LIPC-digested LDL, phosphocholine added into serum” value ([4]; 0-50 μM phosphocholine in diluted native human serum) turn out when `C[N+](C)(C)CCOP(=O)([O-])O` [phosphocholine, reference compound] was run?
Answer: Its value is “significantly decreases complement activation”.

Question: With `CCCCCCCCCCCCCCCC(=O)OC[C@@H](O)COP(=O)([O-])OCC[N+](C)(C)C` [1-palmitoyl-sn-glycero-3-phosphocholine, reference compound] as the molecule, how does the “concentration inducing ARPE-19 cell death” value ([2]; serum-free medium, 22 hours, 0-100 μM tested) read?
Answer: The value was ≥ 20 μM.

Question: How did the “complement activation … of LIPC-digested LDL” value ([1]; 20 hours extraction) turn out when “2-hydroxypropyl-β-cyclodextrin [reference compound]” was run?
Answer: The value was “much weaker effects”.

Question: `OC[C@H]1O[C@@H]2O[C@H]3[C@H](O)[C@@H](O)[C@@H](O[C@H]4[C@H](O)[C@@H](O)[C@@H](O[C@H]5[C@H](O)[C@@H](O)[C@@H](O[C@H]6[C@H](O)[C@@H](O)[C@@H](O[C@H]7[C@H](O)[C@@H](O)[C@@H](O[C@H]8[C@H](O)[C@@H](O)[C@@H](O[C@H]1[C@H](O)[C@H]2O)O[C@@H]8CO)O[C@@H]7CO)O[C@@H]6CO)O[C@@H]5CO)O[C@@H]4CO)O[C@@H]3CO` [β-cyclodextrin, reference compound] was tested. Which “complement activation … of LIPC-digested LDL” value ([1]; 20 hours extraction) did it give?
Answer: Its value is “much weaker effects”.

B1: CRP: purified human CRP, binding protein of lysophosphatidylcholine (protein, UniProt P02741 19-224, looked up)
C-reactive protein: QTDMSRKAFVFPKESDTSYVSLKAPLTKPLKAFTVCLHFYTELSSTRGYSIFSYATKRQDNEILIFWSKDIGYSFTVGGSEILFEVPEVTVAPVHICTSWESASGIVEFWVDGKPRVRKSLKKGYTVGAEASIILGQEQDSFGGNFEGSQSLVGDIGNVNMWDFVLSPDEINTIYLGGPFSPNVLNWRALKYEVQGEVFTKPQLWP
Question: How did the “terminal complement complex formation with additional CRP” value [5] turn out when B1 was run?
Answer: The value was “blocks the terminal complement complex formation”.

Question: And the “C3 fixation by LIPC-digested LDL with additional CRP” value ([4]; native human serum supplemented with purified human CRP)?
Answer: Its value is “dose-dependently enhances its activity on complement activation; also recorded: enhances C3 fixation”.

From US20160151410A1, “CLEARANCE OF BIOACTIVE LIPIDS FROM MEMBRANE STRUCTURES BY CYCLODEXTRINS” (The Trustees of Columbia University in the City of New York, priority 2013, published 2016)
